# Test results reported in the RepoRT retention time repository (doi:10.1016/j.chroma.2019.01.023).
# How the values were obtained:
# Conditions in all cases: stereoisomer not certain
# [1] = HILIC, Waters ACQUITY UPLC BEH Amide, 150 × 2.1 mm, 1.7 µm, 40 °C, 0.5 mL/min, estimated dead time 0.66 min; A: 5% water + 95% acetonitrile; B: 70% water + 30% acetonitrile + 10 mM ammonium formate, pH 6.5; gradient (min/%B) 0/0 2/0 20/70 23/70 24/0 31/0
# [2] = RP, Phenomenex Kinetex C18, 150 × 2.1 mm, 1.7 µm, 30 °C, 0.3 mL/min, estimated dead time 1.1 min; A: water + 0.1% formic acid, pH 3; B: acetonitrile + 0.1% formic acid, pH 3; gradient (min/%B) 0/2 14/100 17/100 17.1/2 25/2
# [3] = HILIC, Merck SeQuant ZIC-pHILIC, 150 × 2.1 mm, 5 µm, 40 °C, 0.3 mL/min, estimated dead time 1.1 min; A: acetonitrile; B: water + 2.8 mM ammonium formate, pH 9; gradient (min/%B) 0/5 1/5 10/51 13/51 13.1/5 20/5
Compound,LC retention time [1] [min],LC retention time [2] [min],LC retention time [3] [min]
O=C(O)CCC(=O)O [SUCCINATE],3.9,1.95,
NC(CCOC(=O)CCC(=O)O)C(=O)O (stereo not drawn) [O-SUCCINYL-HOMOSERINE],11.8,1.45,8.3
CSCCC(O)C(=O)O (stereo not drawn) [2-HYDROXY-4-(METHYLTHIO)BUTANOATE],1.29,3.82,4.59
O=C(O)C(O)Cc1ccc(O)cc1 (stereo not drawn) [HYDROXYPHENYLLACTATE],1.4,3.97,6.83
O=Cc1ccc(O)cc1 [4-HYDROXYBENZALDEHYDE],2.67,5.11,1.43
O=C([O-])c1cccnc1 [NICOTINATE],3.5,1.41,5.76
Nc1ncnc2c1ncn2C1OC(CSCCC([NH3+])C(=O)[O-])C(O)C1O (stereo not drawn) [S-ADENOSYLHOMOCYSTEINE],,1.97,8.51
c1ncc2[nH]cnc2n1 [PURINE],1.89,1.92,3.4
CCC(C)C(N)C(=O)O (stereo not drawn) [ISOLEUCINE],,1.9,7.18
Oc1ccccc1O [PYROCATECHOL],,3.77,8.04
"O=c1cccc(O)[nH]1 [2,6-DIHYDROXYPYRIDINE]",4.81,1.95,6.67
CCCC(N)C(=O)O (stereo not drawn) [NORVALINE],8.68,1.33,7.52
Nc1ncnc2c1ncn2C1CC(O)C(COP(=O)(O)O)O1 (stereo not drawn) [DEOXYADENOSINE MONOPHOSPHATE],,1.55,7.95
O=C(O)CCCCCCC(=O)O [SUBERATE],4.7,5.34,5.2
CC(=O)NCC(=O)O [N-ACETYLGLYCINE],5.48,1.41,7.17
O=c1[nH]c(=O)c2[nH]c(=O)[nH]c2[nH]1 [URATE],2.25,1.52,8.13
CC(O)(CCO)CC(=O)[O-] (stereo not drawn) [MEVALONATE],3.94,1.99,6.07
O=C(O)CCCCCCCCCCCO [OMEGA-HYDROXYDODECANOATE],0.84,8.62,
CC(C)CC(N)C(=O)O (stereo not drawn) [LEUCINE],7.96,2.05,7.02
Nc1nc2nccnc2c(=O)[nH]1 [PTERIN],4.43,2.05,6.57
O=C(O)CCCCCCCCCO [10-HYDROXYDECANOATE],1,7.13,1.44
CC(CCC(=O)O)C(=O)O (stereo not drawn) [2-METHYLGLUTARATE],5.2,3.85,7.37

Compound,LC retention time [1] [min],LC retention time [2] [min],LC retention time [3] [min]
COc1cc(CC(=O)O)ccc1O [HOMOVANILLATE],1.59,4.81,4.78
NCCc1ccc(O)c(O)c1 [DOPAMINE],8.68,1.62,
O=C(O)C=CC(=O)O [FUMARATE],,1.88,9.5
O=C([O-])CCCCC(=O)[O-] [ADIPATE],5.26,3.73,8.71
CC(CC(=O)O)CC(=O)O [METHYGLUTARATE],1.27,3.85,7.27
O=C(O)CCCC(=O)O [GLUTARATE],2,2.92,
NC(=O)c1ccc[n+](C2OC(COP(=O)(O)OP(=O)([O-])OCC3OC(n4cnc5c(N)ncnc54)C(O)C3O)C(O)C2O)c1 (stereo not drawn) [BETA-NICOTINAMIDE ADENINE DINUCLEOTIDE],,1.4,8.52
O=C(O)CC(O)(CC(=O)O)C(=O)O [CITRATE],,1.57,10.2
Cc1ncc(CO)c(C=O)c1O [PYRIDOXAL],1.81,1.4,2.6
"Nc1ncnc2c1ncn2C1OC(CO)C2OP(=O)(O)OC21 (stereo not drawn) [ADENOSINE 2',3'-CYCLIC PHOSPHATE]",6.69,1.73,6.94
CCC(C)C(=O)C(=O)[O-] (stereo not drawn) [3-METHYL-2-OXOVALERATE],1.83,4.14,
O=C(O)Cc1cccc(O)c1 [3-HYDROXYPHENYLACETATE],,4.82,5.88
"OCC(O)c1ccc(O)c(O)c1 (stereo not drawn) [3,4-DIHYDROXYPHENYLGLYCOL]",,1.82,6.22
CCCCC(N)C(=O)O (stereo not drawn) [NORLEUCINE],7.75,2.19,7.04
Nc1ccn(C2OC(CO)C(O)C2O)c(=O)n1 (stereo not drawn) [CYTIDINE],6.3,1.39,7.29
CC(=O)NC(C)C(=O)O (stereo not drawn) [N-ACETYLALANINE],4.75,1.97,
CCC(NC(=O)CCC([NH3+])C(=O)[O-])C(=O)NCC(=O)[O-] (stereo not drawn) [OPHTHALMATE],,1.58,8.32
Nc1nc2c(ncn2C2OC(COP(=O)(O)O)C(O)C2O)c(=O)[nH]1 (stereo not drawn) [GUANOSINE MONOPHOSPHATE],,1.41,9.41
O=C(O)C(=O)Cc1ccccc1 [PHENYLPYRUVATE],,4.94,5.27
C=CC1=C(C)C(C=c2[nH]c(=Cc3[nH]c(C=C4NC(=O)C(C)=C4C=C)c(C)c3CCC(=O)O)c(CCC(=O)O)c2C)=NC1=O [BILIVERDIN],1.13,9.08,
Nc1cc(C(=O)O)ccc1[O-] [3-AMINO-4-HYDROXYBENZOATE],1.84,1.52,7.39
Nc1c([O-])cccc1C(=O)O [3-HYDROXYANTHRANILATE],1.39,3.68,6.24

Compound,LC retention time [1] [min],LC retention time [2] [min],LC retention time [3] [min]
CCCCCCCCCC(=O)OCC(COP(=O)([O-])OCC[N+](C)(C)C)OC(=O)CCCCCCCCC (stereo not drawn) [DIDECANOYL-GLYCEROPHOSPHOCHOLINE],5.15,12.8,1.65
CC1(O)CCOC(=O)C1 (stereo not drawn) [MEVALOLACTONE],0.89,2.04,
CC(CCC(=O)O)C1CCC2C3CCC4CC(O)CCC4(C)C3CCC12C (stereo not drawn) [LITHOCHOLATE],0.84,12.8,
O=C(O)Cc1ccccc1O [2-HYDROXYPHENYLACETATE],0.9,4.46,
C[N+](C)(C)CC(CC(=O)[O-])OC(=O)CCCC(=O)O (stereo not drawn) [GLUTARYLCARNITINE],11.9,2.56,
O=C(O)c1cccc([O-])c1 [3-HYDROXYBENZOATE],,4.87,6.39
O=C(O)Cc1ccc(O)cc1 [P-HYDROXYPHENYLACETATE],,4.59,5.76
Nc1ncnc2c1ncn2C1OC(COP(=O)(O)O)C(O)C1O (stereo not drawn) [ADENOSINE-MONOPHOSPHATE],,1.41,8.23
Nc1nc2c(ncn2C2CC(O)C(COP(=O)(O)O)O2)c(=O)[nH]1 (stereo not drawn) [DEOXYGUANOSINE-MONOPHOSPHATE],,1.67,8.92
"O=C(O)C(O)c1ccc(O)c(O)c1 (stereo not drawn) [3,4 DIHYDROXYMANDELATE]",,1.7,8.57
O=C(C=Cc1ccc(O)c(O)c1)OC(Cc1ccc(O)c(O)c1)C(=O)O (stereo not drawn) [ROSMARINATE],,6.25,7.55
CC=CC=CC(=O)[O-] [SORBATE],,4.51,1.73
"O=C(O)c1cc(O)ccc1[O-] [2,5-DIHYDROXYBENZOATE]",,4.46,6.29
Nc1ccn(C2CC(O)C(COP(=O)(O)O)O2)c(=O)n1 (stereo not drawn) [DEOXYCYTIDINE MONOPHOSPHATE],,1.4,8.61
NC(=O)c1ncn(C2OC(COP(=O)(O)O)C(O)C2O)c1N (stereo not drawn) [AICAR],,1.38,8.82
O=C([O-])C(O)c1ccccc1 (stereo not drawn) [MANDELATE],,4.45,4.83
CC(O)(CC(=O)O)C(=O)O (stereo not drawn) [CITRAMALATE],,1.94,8.8
NC(N)=NCCCC(=O)O [4-GUANIDINOBUTANOATE],10.1,1.39,
O=c1[nH]c(=O)c2ncn(C3OC(COP(=O)(O)O)C(O)C3O)c2[nH]1 (stereo not drawn) [XANTHOSINE-MONOPHOSPHATE],,1.45,10.2
Nc1ccccc1S(=O)(=O)O [ANILINE-2-SULFONATE],,2.04,5.89
CC(=O)NC(CS)C(=O)O (stereo not drawn) [N-ACETYLCYSTEINE],1.88,2.62,
COc1cc(C(O)C(=O)O)ccc1O (stereo not drawn) [3-METHOXY-4-HYDROXYMANDELATE],,2.94,6.9
